Measured values published in patent US10808018B2, “Erythropoietin-derived peptides and methods of protecting cells from oxidative damage induced by reactive oxygen species” (SYLUS CO., LTD., priority 2017, dated 2020).
Peptide text beside a SMILES is read from it.

How the values were obtained:
[1] = system: PC12 cells; experiment: Cell proliferation side effect, MTS assay; assay type: cell-based; conditions: peptide 1 pM to 0.5 nM, 48 hours, FIG. 4
Procedure: Side effects such as cell proliferation were determined for the three peptides (ML1-L2, ML1-K2, and ML1-R2) prepared in Example 4.
In detail, to determine cell proliferation degree, an MTS assay (CellTiter 96 Aqueous One Solution Cell Proliferation Assay, Promega, Madison, Wis., USA) was performed. […] The initial number of cells (0 hour) and the number of cells after 48 hours were counted. Intracellular soluble formazan produced by cell reduction was determined by recording absorbance of each 96-well plate at a wavelength of 490 nm using a VERSA MAX.

[2] = target: T1, Soluble mouse EPOR chimera proteins (erythropoietin receptor) (Mus musculus, UniProt P14753); experiment: Surface plasmon resonance (SPR) binding affinity to erythropoietin receptor; conditions: Table 8; for Ka: association rate
T1 construct: Soluble mouse EPOR chimera proteins; purchased R&D Systems
T1 sequence (P14753 25-249 limits assumed): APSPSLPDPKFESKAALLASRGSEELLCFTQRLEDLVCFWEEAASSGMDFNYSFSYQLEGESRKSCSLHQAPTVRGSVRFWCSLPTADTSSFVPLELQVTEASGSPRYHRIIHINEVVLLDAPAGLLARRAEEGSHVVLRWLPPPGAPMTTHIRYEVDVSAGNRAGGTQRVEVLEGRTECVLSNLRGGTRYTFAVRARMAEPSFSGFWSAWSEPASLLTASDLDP
Excerpt: The SPR technique is to measure interactions between biomolecules in real-time by using an optical principle without specific labeling, and is a system analyzing affinity between two molecules and kinetics, i.e., an association rate (Ka) and a dissociation rate (Kd). In detail, real-time SPR analysis may be performed using Reichert SPR Biosensor SR […] instrument (Reichert Inc., NY, USA). Soluble mouse EPOR chimera proteins (R&D Systems, Minneapolis, Minn., USA) were covalently linked to a carboxymethylated dextran matrix-coated chip (BR-1005-39, Pharmacia Biosensor AB) by an amine coupling procedure using an amine coupling kit (BR-1000-50, GE Healthcare, USA) in accordance with manufacturer's instructions. Each 5 pM, 2.5 pM, and 1.25 pM of the peptide samples of the present disclosure and scrambled peptides were applied at a flow rate of 5 μl/minute, and the experiments were independently performed in duplicate. For signal normalization, DMSO was applied at a flow rate of 5 μl/minute. After each binding cycle, the sensor chip was regenerated by injecting 25 mM of acetic acid at a flow rate of 20 μl/minute.

Compound | Ka [2] | dissociation rate constant (koff) [2] | cell proliferation rate (side effect) [1]
CC(C)C[C@H](NC(=O)CNC(=O)[C@H](CO)NC(=O)[C@@H](NC(=O)[C@H](C)NC(=O)[C@H](CCCCN)NC(=O)[C@H](CC(=O)O)NC(=O)[C@@H](NC(=O)[C@H](Cc1c[nH]cn1)NC(=O)[C@@H](N)CCCCN)C(C)C)C(C)C)C(=O)N[C@@H](CCCNC(=N)N)C(=O)N[C@@H](CO)C(=O)N[C@@H](CC(C)C)C(=O)N[C@H](C(=O)N[C@H](C(=O)N[C@@H](CCCCN)C(=O)O)[C@@H](C)O)[C@@H](C)O [ML1-K2] (H-KHVDKAVSGLRSLTTK-OH) |  |  | no side effect of cell proliferation
CC(C)C[C@H](NC(=O)[C@@H](NC(=O)[C@@H](NC(=O)[C@H](CC(C)C)NC(=O)[C@H](CO)NC(=O)[C@H](CCCNC(=N)N)NC(=O)[C@H](CC(C)C)NC(=O)CNC(=O)[C@H](CO)NC(=O)[C@@H](NC(=O)[C@H](C)NC(=O)[C@H](CCCCN)NC(=O)[C@H](CC(=O)O)NC(=O)[C@@H](NC(=O)[C@H](Cc1c[nH]cn1)NC(=O)[C@@H](N)CC(C)C)C(C)C)C(C)C)[C@@H](C)O)[C@@H](C)O)C(=O)O [ML1-L2] (H-LHVDKAVSGLRSLTTL-OH) |  |  | no side effect of cell proliferation
CC(C)C[C@H](NC(=O)CNC(=O)[C@H](CO)NC(=O)[C@@H](NC(=O)[C@H](C)NC(=O)[C@H](CCCCN)NC(=O)[C@H](CC(=O)O)NC(=O)[C@@H](NC(=O)[C@H](Cc1c[nH]cn1)NC(=O)[C@@H](N)CCCNC(=N)N)C(C)C)C(C)C)C(=O)N[C@@H](CCCNC(=N)N)C(=O)N[C@@H](CO)C(=O)N[C@@H](CC(C)C)C(=O)N[C@H](C(=O)N[C@H](C(=O)N[C@@H](CCCNC(=N)N)C(=O)O)[C@@H](C)O)[C@@H](C)O [ML1-R2] (H-RHVDKAVSGLRSLTTR-OH) |  |  | no side effect of cell proliferation
CC[C@H](C)[C@H](NC(=O)[C@H](C)NC(=O)[C@H](CCC(=O)O)NC(=O)[C@H](CCCCN)NC(=O)[C@H](CCC(N)=O)NC(=O)[C@H](C)NC(=O)CNC(=O)[C@H](CC(C)C)NC(=O)[C@H](C)NC(=O)[C@H](CCCNC(=N)N)NC(=O)[C@H](CC(C)C)NC(=O)[C@@H](NC(=O)[C@H](Cc1c[nH]cn1)NC(=O)[C@@H](NC(=O)[C@H](CC(C)C)NC(=O)[C@@H](NC(=O)[C@H](CCCCN)NC(=O)[C@H](CC(C)C)NC(=O)CNC(=O)[C@H](CO)NC(=O)[C@@H](NC(=O)[C@H](C)NC(=O)[C@H](CCCCN)NC(=O)[C@@H](N)CCCCN)C(C)C)[C@@H](C)O)[C@@H](C)O)[C@@H](C)CC)C(=O)O [ML4-1] (H-KKAVSGLKTLTHILRALGAQKEAI-OH; N-terminus and C-terminus assumed) | 4.10 × 10^2 | 1.20 × 10^−2 | 
CC(C)C[C@H](NC(=O)CNC(=O)[C@H](C)N)C(=O)N[C@@H](CCCNC(=N)N)C(=O)N[C@@H](CO)C(=O)N[C@@H](CCCNC(=N)N)C(=O)N[C@@H](C)C(=O)N[C@@H](Cc1c[nH]cn1)C(=O)N[C@@H](CC(C)C)C(=O)N[C@@H](CCCNC(=N)N)C(=O)N[C@@H](CCCNC(=N)N)C(=O)N[C@@H](C)C(=O)N[C@@H](CC(C)C)C(=O)N[C@@H](C)C(=O)O [ML5-1] (H-AGLRSRAHLRRALA-OH; N-terminus and C-terminus assumed) | 4.42 × 10^2 | 3.46 × 10^−2 | 
CC[C@H](C)[C@H](NC(=O)[C@H](C)NC(=O)[C@H](CCC(=O)O)NC(=O)[C@H](CCCCN)NC(=O)[C@H](CCC(N)=O)NC(=O)[C@H](C)NC(=O)CNC(=O)[C@H](CC(C)C)NC(=O)[C@H](C)NC(=O)[C@H](CCCNC(=N)N)NC(=O)[C@H](CC(C)C)NC(=O)[C@H](CC(C)C)NC(=O)[C@H](CO)NC(=O)[C@@H](NC(=O)[C@H](CC(C)C)NC(=O)[C@H](CO)NC(=O)[C@H](CCCNC(=N)N)NC(=O)[C@H](CC(C)C)NC(=O)CNC(=O)[C@@H](N)CCCCN)[C@@H](C)CC)C(=O)O [ML6-1] (H-KGLRSLISLLRALGAQKEAI-OH; N-terminus and C-terminus assumed) | 1.9 × 10^2 | 3 × 10^−2 | 
CC[C@H](C)[C@H](NC(=O)[C@H](CC(C)C)NC(=O)[C@@H](NC(=O)[C@@H](NC(=O)[C@H](CC(C)C)NC(=O)[C@@H](NC(=O)[C@H](CCCNC(=N)N)NC(=O)[C@H](CC(C)C)NC(=O)CNC(=O)[C@@H](NC(=O)[C@H](C)NC(=O)[C@H](C)NC(=O)[C@H](CCCCN)NC(=O)[C@H](CC(=O)O)NC(=O)[C@@H](NC(=O)[C@H](CCC(=O)O)NC(=O)[C@H](CC(C)C)NC(=O)[C@H](CC(=O)O)NC(=O)[C@H](CC(C)C)NC(=O)[C@H](C)NC(=O)[C@H](CCC(=O)O)NC(=O)[C@@H](N)CC(=O)O)C(C)C)[C@@H](C)O)[C@@H](C)O)[C@@H](C)O)[C@@H](C)O)C(=O)N[C@@H](CCCNC(=N)N)C(=O)N[C@@H](C)C(=O)N[C@@H](CC(C)C)C(=O)O [ML7-1] (H-DEALDLEVDKAATGLRTLTTLIRAL-OH; N-terminus and C-terminus assumed) | 2.26 × 10^2 | 1.44 × 10^−2 | 
CC(C)C[C@H](NC(=O)CNC(=O)[C@H](C)NC(=O)[C@@H](NC(=O)[C@H](C)NC(=O)[C@H](CCCCN)NC(=O)[C@@H](N)CC(N)=O)C(C)C)C(=O)N[C@@H](CCCNC(=N)N)C(=O)N[C@@H](CO)C(=O)N[C@@H](CC(C)C)C(=O)N[C@H](C(=O)N[C@H](C(=O)N[C@@H](CC(N)=O)C(=O)O)C(C)C)[C@@H](C)O [ML8-1] (H-NKAVAGLRSLTVN-OH; N-terminus and C-terminus assumed) |  | 1.5 × 10^−1 | 

Continued, in another order:

Ka [2] | dissociation rate constant (koff) [2] | Compound | cell proliferation rate (side effect) [1]
2.05 × 10^2 | 3 × 10^−3 | CC(C)[C@H](NC(=O)[C@H](CCCCN)NC(=O)[C@@H](N)[C@@H](C)O)C(=O)N[C@@H](CC(N)=O)C(=O)N[C@@H](Cc1ccccc1)C(=O)N[C@@H](Cc1ccc(O)cc1)C(=O)N[C@@H](C)C(=O)N[C@@H](Cc1c[nH]c2ccccc12)C(=O)N[C@@H](CCCCN)C(=O)N[C@@H](CCCNC(=N)N)C(=O)O [ML3] (H-TKVNFYAWKR-OH; N-terminus and C-terminus assumed) | 
2.2 × 10^2 | 2.2 × 10^−3 | CC[C@H](C)[C@H](NC(=O)[C@H](C)NC(=O)[C@H](CCC(=O)O)NC(=O)[C@H](CCCCN)NC(=O)[C@H](CCC(N)=O)NC(=O)[C@H](C)NC(=O)CNC(=O)[C@H](CC(C)C)NC(=O)[C@H](C)NC(=O)[C@H](CCCNC(=N)N)NC(=O)[C@H](CC(C)C)NC(=O)[C@H](CC(C)C)NC(=O)[C@@H](NC(=O)[C@@H](NC(=O)[C@H](CC(C)C)NC(=O)[C@H](CO)NC(=O)[C@H](CCCNC(=N)N)NC(=O)[C@H](CC(C)C)NC(=O)CNC(=O)[C@H](CO)NC(=O)[C@@H](NC(=O)[C@H](C)NC(=O)[C@H](CCCCN)NC(=O)[C@@H](N)CC(=O)O)C(C)C)[C@@H](C)O)[C@@H](C)O)C(=O)O [ML4] (H-DKAVSGLRSLTTLLRALGAQKEAI-OH; N-terminus and C-terminus assumed) | 
3.04 × 10^2 | 0.1 × 10^−3 | CC(C)C[C@H](NC(=O)CNC(=O)[C@@H](N)CO)C(=O)N[C@@H](CCCNC(=N)N)C(=O)N[C@@H](CO)C(=O)N[C@@H](CC(C)C)C(=O)N[C@H](C(=O)N[C@H](C(=O)N[C@@H](CC(C)C)C(=O)N[C@@H](CC(C)C)C(=O)N[C@@H](CCCNC(=N)N)C(=O)N[C@@H](C)C(=O)N[C@@H](CC(C)C)C(=O)NCC(=O)O)[C@@H](C)O)[C@@H](C)O [ML5] (H-SGLRSLTTLLRALG-OH; N-terminus and C-terminus assumed) | 
 | 4.5 × 10^−2 | CC[C@H](C)[C@H](NC(=O)[C@H](C)NC(=O)[C@H](CCC(=O)O)NC(=O)[C@H](CCCCN)NC(=O)[C@H](CCC(N)=O)NC(=O)[C@H](C)NC(=O)CNC(=O)[C@H](CC(C)C)NC(=O)[C@H](C)NC(=O)[C@H](CCCNC(=N)N)NC(=O)[C@H](CC(C)C)NC(=O)[C@H](CC(C)C)NC(=O)[C@@H](NC(=O)[C@@H](NC(=O)[C@H](CC(C)C)NC(=O)[C@H](CO)NC(=O)[C@H](CCCNC(=N)N)NC(=O)[C@H](CC(C)C)NC(=O)CNC(=O)[C@@H](N)CO)[C@@H](C)O)[C@@H](C)O)C(=O)O [ML6] | 
1.8 × 10^2 | 0.8 × 10^−1 | CC(C)C[C@H](NC(=O)[C@H](C)NC(=O)[C@H](CCCNC(=N)N)NC(=O)[C@H](CC(C)C)NC(=O)[C@H](CC(C)C)NC(=O)[C@@H](NC(=O)[C@@H](NC(=O)[C@H](CC(C)C)NC(=O)[C@H](CO)NC(=O)[C@H](CCCNC(=N)N)NC(=O)[C@H](CC(C)C)NC(=O)CNC(=O)[C@H](CO)NC(=O)[C@@H](NC(=O)[C@H](C)NC(=O)[C@H](CCCCN)NC(=O)[C@@H](N)CC(=O)O)C(C)C)[C@@H](C)O)[C@@H](C)O)C(=O)O [ML8] (H-DKAVSGLRSLTTLLRAL-OH; N-terminus and C-terminus assumed) | 
